As a reminder, the NOAEL is the highest dose or exposure tested at which no adverse effect was seen.

The results in this text go back to EPA's ToxValDB 9.5 (doi:10.2903/j.efsa.2012.2860).

In data set [1] the test system is Canidae. The conditions noted are these: chronic; duration: 1 years; oral; Dog Other; histopathology: nonneoplastic.
Data set [2] concerns Anas platyrhynchos. The conditions noted are these: short-term; oral; feed; mortality.
Data set [3] has as its system Rattus norvegicus.
In data set [4] the test system is Colinus virginianus. The conditions noted are these: for LD50: acute, oral, mortality.

Take `Cc1nn(C)c(F)c1C(=O)Nc1ccccc1C(C)CC(C)C` (stereo not given) [Penflufen]: the NOAEL in data set [1] was 7.7 mg/kg-day; in data set [3] (acute, oral, F, clinical signs), 50 mg/kg-day; in data set [3] (chronic, duration: 2 years, histopathology: nonneoplastic), 4 mg/kg-day; in data set [3] (reproduction developmental, F, reproduction), 71 mg/kg-day; in data set [3] (reproduction developmental, M, reproduction), 58 mg/kg-day. Further, the LD50 in data set [2] was more than 2210 mg/kg-day; in data set [3] (acute, oral, mortality), more than 2000 mg/kg-day; in data set [4] (diet) it was more than 1700 mg/kg-day; in data set [4] it was more than 4000 mg/kg-day. Moreover, the NOEL in data set [4] (reproduction developmental) was determined as 96 mg/kg-day.
